Key:
[1] = tested on: RINm5F cells; experiment: Membrane potential on isolated β cells (RINm5F cells, whole cell patch clamp); assay type: cell-based; settings: 10^-5 mol per liter, diazoxide (100 μmol) in bath, 34°±1° C., n = 6
Method: The action mechanism of hypoglycemic sulfonylureas is clarified in rough outlines. The β cells of the pancreas are the target organ, where increased secretion of the hypoglycemic hormone insulin occurs. The release of insulin is controlled by the cell membrane potential. Glihenclamide causes depolarization of the cell membrane, which promotes insulin release via an increased in-flow of calcium ions. The extent of this depolarization of the cell membrane ΔU was determined on RINm5F cells, a pancreas tumor cell line, for some of the compounds according to the invention. The action strength of a compound in this model predicts the extent of the hypoglycemic potential of this compound.
RINm5F cells were cultured at 37° C. in RPMI 1640 culture medium (flow), to which 11 mmol of glucose, 10% (volume/volume) of fetal calf serum, 2 mmol of glutamine and 50 μg/ml of gentamycin were added. For the studies, the cells were isolated by incubation (about 3 minutes) in a Ca^2+ -free medium containing 0.25% of trypsin and stored on ice.
Isolated RINm5F cells were introduced into a Plexiglas chamber on an inverse microscope fitted with a differential interference contrast lens. […] The cell potential was recorded in this whole cell configuration with the aid of a patch clamp amplifier (L/M EPC 7) and was measured by applying a potential ramp to the whole cell current. […]

[2] = tested on: papillary muscle of the guineapig; experiment: Action potential duration on the papillary muscle of the guineapig; assay type: cell-based; settings: test substance 2.2×10^-5 mol per liter, 30 minutes after the addition, control without test substance <40; for APD95 -HOE 234: action potential shortened by 1 μM rilmakalim (Hoe 234); for APD95 -DEO: action potential shortened by 2-deoxyglucose (DEO)
Description: ATP deficiency states such as are observed during ischemia in the cardiac muscle cell lead to a shortening of the duration of action potential. They are one of the causes of so-called reentry arrhythmias, which can cause sudden cardiac death. Opening of ATP-sensitive K channels by the reduction in ATP is a cause of this.
A standard microelectrode technique is used for measurement of the action potential. For this, guineapigs of both sexes are sacrificed by a blow to the head, the hearts are removed and the papillary muscles are separated out and suspended in an organ bath. The organ bath is flushed with Ringer solution (0.9% NaCl, 0.048% KCl, 0.024% CaCl2, 0.02% NaHCO3 and 0.1% glucose) and gassed with a mixture of 95% oxygen and 5% carbon dioxide at a temperature of 36° C. The muscle is stimulated via an electrode with rectangular pulses of 1 V and 1 ms duration and a frequency of 2 Hz. The action potential is conducted and recorded through a glass microelectrode, which is punctured intracellularly and filled with […] solution. The substances to be tested were added to the Ringer solution in a concentration of 2.2×10^-5 mol per liter. The action potential is shown in amplified form on an oscilloscope using a Hugo Sachs amplifier. The duration of the action potential is determined at a repolarization degree of 95% (APD95). Shortenings in action potential are caused either by addition of a 1 μM strength solution of the potassium channel opener rilmakalim (Hoe 234) [W. Linz, E. Klaus, U. Albus, R. H. A. Becker, D. Mania, H. C. Englert, B. A. Scholkens Arzneimittelforschung/Drug Research, Volume 42 (II), 1992, pages 1180-1185] or by addition of 2-deoxyglucose (DEO). ATP deficiency states are caused in experimental physiology by 2-deoxyglucose by blockade of glucose metabolism. The action potential-shortening effect of these substances was prevented or reduced by the simultaneous dose of the test substances. The test substances were added to the bath solution as stock solutions in propanediol. The values stated relate to measurements 30 minutes after the addition. The APD95 in the presence of DEO or HOE 234 and in the absence of the test substance serves as a control.

Row | SMILES | ΔU (depolarization of the cell membrane) [1] | APD95 -HOE 234 [2] | APD95 -DEO [2]
1 | CCC1=C(C)CN(C(=O)NCCc2ccc(OC)c(S(=O)(=O)NC(=S)NC)c2)C1=O [Example 1, 1-{2-Methoxy-5-[2-(3-ethyl-4-methyl-2-oxo-3-pyrrolinyl-1-carboxamido)-ethyl]-phenylsulfonyl-}3-methylthiourea] | 2 mV | 119 ± 16 ms | 60 ± 22 ms
2 | CCC1=C(C)CN(C(=O)NCCc2ccc(OC)c(S(=O)(=O)NC(=O)NC)c2)C1=O [Example 2, 1-{2-Methoxy-5-[2-(3-ethyl-4-methyl-2-oxo-3-pyrrolinyl-1-carboxamido)-ethyl]-phenylsulfonyl-}3-methylurea] | 12 mV | 125 ms | 110 ms

From patent US5631275A, “Substituted benzenesulfonylureas and -thioureas, preparation processes and possible uses of pharmaceutical preparations based on these compounds” (Hoechst Aktiengesellschaft, priority 1993, dated 1997)
